Read-outs that look alike come from different tables or passages of the source.

The target of one data set is σ1 (Homo sapiens, UniProt Q99720). As to the kind of experiment: PDSP off-target binding, σ1.
Data set [1] relates to off-target receptors and transporters. As to the kind of experiment: PDSP off-target screen. It is filed as binding, human.
The target in the next data set is rA1AR (Rattus norvegicus, UniProt P25099). To be noted: read-out: A1AR Ki; rat (r); ref [17],[23],[30],[33],[34],[43],[45]; cited from earlier work.
Another data set concerns the target T1, hA1AR (Homo sapiens, UniProt P30542).
T1 sequence (P30542 1-326): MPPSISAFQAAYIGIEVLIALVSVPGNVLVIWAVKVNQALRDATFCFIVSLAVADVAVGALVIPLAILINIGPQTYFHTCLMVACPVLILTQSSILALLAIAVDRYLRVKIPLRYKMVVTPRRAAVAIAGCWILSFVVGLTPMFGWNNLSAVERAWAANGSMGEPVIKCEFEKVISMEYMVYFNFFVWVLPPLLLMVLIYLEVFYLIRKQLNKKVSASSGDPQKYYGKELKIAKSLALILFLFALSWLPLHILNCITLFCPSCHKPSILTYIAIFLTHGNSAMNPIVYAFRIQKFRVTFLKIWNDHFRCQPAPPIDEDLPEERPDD
To be noted: read-out: A1AR Ki; human (h); ref [1],[17],[23],[30],[32]-[36],[43]-[45]; cited from earlier work.

The target of another data set is hA2AAR (Homo sapiens, UniProt P29274). The settings on record: read-out: A2AAR Ki; human (h); ref [1],[17],[23],[30],[32]-[35],[43],[45]; cited from earlier work.
Another data set concerns the target rA2AAR. To be noted: read-out: A2AAR Ki; rat (r); ref [17],[23],[30],[33],[34],[43],[45]; cited from earlier work.
Another data set deals with hA3AR (Homo sapiens, UniProt P0DMS8). To be noted: read-out: A3AR Ki; human (h); ref [1],[17],[23],[30],[32]-[35],[43],[45]; cited from earlier work.
The test system of another data set is GPCR assays. As to the kind of experiment: Broad GPCR screening. The data set is classed as cell-based. The settings on record: at 10 μM; DiscoverX.
The subject of another data set is 403 kinases. As to the kind of experiment: Kinase screen. The data set is classed as binding. To be noted: at 10 μM; among 403 kinases.
The nature of data set [2]: Pharmacokinetics in male cynomolgus monkeys. It is filed as in vivo, cynomolgus monkey. The settings on record: one-day observation period.
For a further data set, the system named is female rhesus monkeys. As to the kind of experiment: Tolerability in female rhesus monkeys. The data set is classed as in vivo, rhesus monkey. The settings on record: 1 or 3 mg/kg in a food treat; up to 4 h post-dosing.
The nature of data set [3]: Stability in simulated intestinal fluid. It is filed as in vitro ADME.
A further data set is described as follows: Human liver microsomes. The data set is classed as in vitro ADME.
A further data set has as its system anesthetized rat. As to the kind of experiment: Cardiovascular effects in the anesthetized rat. The data set is classed as in vivo. To be noted: 3 mg/kg, ip., preliminary.
In the next data set the test system is mouse. The settings on record: 60 mg/kg.
The subject of data set [4] is wild-type C57BL/6J mice. To be noted: 3 mg/kg ip.; average from dosing to 60 min; ref [30]; cited from earlier work.
Data set [5] has as its system A1AR, A3AR. To be noted: ref [30]; cited from earlier work.
The target in another data set is DAT (Homo sapiens, UniProt Q01959). As to the kind of experiment: PDSP off-target binding, DAT. The settings on record: read-out: Off-target Ki, DAT.
A further data set deals with 5HT2C (Homo sapiens, UniProt P28335). As to the kind of experiment: PDSP off-target binding, 5HT2C. The settings on record: read-out: Off-target Ki, 5HT2C.
A further data set concerns the target T2, mA1AR (Mus musculus, UniProt Q60612).
T2 sequence (Q60612 1-326): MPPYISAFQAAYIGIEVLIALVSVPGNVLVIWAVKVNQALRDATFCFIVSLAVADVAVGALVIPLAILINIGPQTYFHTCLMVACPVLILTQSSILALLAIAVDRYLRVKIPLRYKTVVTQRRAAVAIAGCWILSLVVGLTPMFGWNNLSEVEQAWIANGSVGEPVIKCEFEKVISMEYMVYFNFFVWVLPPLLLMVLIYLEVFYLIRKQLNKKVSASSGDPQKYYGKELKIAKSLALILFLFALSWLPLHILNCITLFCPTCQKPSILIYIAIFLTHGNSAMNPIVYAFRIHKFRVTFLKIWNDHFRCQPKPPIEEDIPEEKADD
The settings on record: read-out: A1AR Ki; mouse (m); ref [17],[23],[30],[32]-[34],[36],[43]-[45]; cited from earlier work.

The target of the next data set is mA2AAR (Mus musculus, UniProt Q60613). To be noted: mouse (m); at 10 μM; ref [30],[33],[34],[43]; cited from earlier work.
The target of the next data set is mA3AR (Mus musculus, UniProt Q61618). To be noted: read-out: A3AR Ki; mouse (m); ref [17],[23],[30],[32]-[34],[43],[45]; cited from earlier work.
The target in another data set is T3, hA2BAR (Homo sapiens, UniProt P29275).
T3 sequence (P29275 1-332): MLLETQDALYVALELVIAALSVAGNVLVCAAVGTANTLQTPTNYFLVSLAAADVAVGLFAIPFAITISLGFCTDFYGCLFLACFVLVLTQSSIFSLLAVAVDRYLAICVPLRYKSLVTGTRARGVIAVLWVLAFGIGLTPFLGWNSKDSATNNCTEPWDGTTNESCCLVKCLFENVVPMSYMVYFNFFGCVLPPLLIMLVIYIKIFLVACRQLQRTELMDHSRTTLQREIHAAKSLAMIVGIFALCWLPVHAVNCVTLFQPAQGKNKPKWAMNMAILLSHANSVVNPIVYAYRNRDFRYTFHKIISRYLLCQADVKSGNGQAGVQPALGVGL
As to the kind of experiment: hA2BAR radioligand binding using [3H]54.

The test system of data set [6] is wild-type C57BL/6J mice. The data set can be described thus: Body temperature and locomotor activity by telemetry after ip. dosing. The data set is classed as in vivo, mouse.
In data set [7] the test system is A1AR, A3AR. As to the kind of experiment: Hypothermia in A1AR, A3AR and A1AR/A3AR deficient mice. It is filed as in vivo, mouse. To be noted: 3 mg/kg ip.
The test system of a further data set is mice. The data set can be described thus: Hypothermia after intracerebroventricular infusion. It is filed as in vivo, mouse.
The nature of data set [8]: Pharmacokinetics in the male rat. The data set is classed as in vivo. To be noted: 3 mg/kg p.o.
Data set [9] can be described thus: Stability in simulated gastric fluid. The data set is classed as in vitro ADME.
Another data set is described as follows: Mouse liver microsomes. The data set is classed as in vitro ADME.
A short description of another data set: Rat liver microsomes. The data set is classed as in vitro ADME.
Data set [10] in a line: Stability in human plasma. It is filed as in vitro ADME. To be noted: human (h).
Data set [11] is described as follows: Stability in mouse plasma. It is filed as in vitro ADME. The settings on record: mouse (m).
Another data set in a line: Stability in rat plasma. It is filed as in vitro ADME.
The next data set has as its target 1A2 CYP isozyme (Homo sapiens, UniProt P05177). The data set can be described thus: CYP 1A2 inhibition. The data set is classed as in vitro ADME.
A further data set concerns the target hCYP P450 2C9 (Homo sapiens, UniProt P11712). As to the kind of experiment: CYP 2C9 inhibition. It is filed as in vitro ADME.
A further data set deals with 2C19 CYP isozyme (Homo sapiens, UniProt P33261). The data set can be described thus: CYP 2C19 inhibition. The data set is classed as in vitro ADME.
The target of a further data set is hCYP P450 2D6 (Homo sapiens, UniProt P10635). The data set can be described thus: CYP 2D6 inhibition. It is filed as in vitro ADME.
The next data set deals with hCYP P450 3A4 (Homo sapiens, UniProt P08684). As to the kind of experiment: CYP 3A4 inhibition. It is filed as in vitro ADME.
A further data set concerns CACO-2 cells. As to the kind of experiment: CACO-2 permeability and efflux. The data set is classed as in vitro ADME.
For another data set, the system named is HEP-G2 hepatocytes. As to the kind of experiment: Toxicity in HEP-G2 hepatocytes. The data set is classed as cell-based.

Chain of hA2AAR (P29274 whole entry): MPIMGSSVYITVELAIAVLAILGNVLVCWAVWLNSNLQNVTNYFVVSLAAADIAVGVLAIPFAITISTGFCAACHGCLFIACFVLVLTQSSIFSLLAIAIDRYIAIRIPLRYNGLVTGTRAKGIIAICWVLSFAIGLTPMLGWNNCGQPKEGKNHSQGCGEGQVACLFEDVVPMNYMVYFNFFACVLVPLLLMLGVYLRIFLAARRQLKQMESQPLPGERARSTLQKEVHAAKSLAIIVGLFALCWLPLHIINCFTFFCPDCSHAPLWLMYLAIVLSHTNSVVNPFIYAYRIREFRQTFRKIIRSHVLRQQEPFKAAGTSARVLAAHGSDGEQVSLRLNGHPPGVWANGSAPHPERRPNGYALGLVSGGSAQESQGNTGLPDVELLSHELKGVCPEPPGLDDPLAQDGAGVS
Chain of hA3AR (P0DMS8 whole entry): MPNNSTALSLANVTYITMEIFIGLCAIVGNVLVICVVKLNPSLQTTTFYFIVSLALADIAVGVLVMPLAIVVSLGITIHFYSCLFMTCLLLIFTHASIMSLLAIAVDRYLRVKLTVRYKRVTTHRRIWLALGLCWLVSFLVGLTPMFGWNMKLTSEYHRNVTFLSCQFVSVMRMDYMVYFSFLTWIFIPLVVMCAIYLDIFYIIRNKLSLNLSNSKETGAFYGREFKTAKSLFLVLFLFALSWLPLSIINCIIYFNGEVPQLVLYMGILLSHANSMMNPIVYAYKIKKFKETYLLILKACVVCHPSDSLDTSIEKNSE
Chain of σ1 (Q99720 whole entry): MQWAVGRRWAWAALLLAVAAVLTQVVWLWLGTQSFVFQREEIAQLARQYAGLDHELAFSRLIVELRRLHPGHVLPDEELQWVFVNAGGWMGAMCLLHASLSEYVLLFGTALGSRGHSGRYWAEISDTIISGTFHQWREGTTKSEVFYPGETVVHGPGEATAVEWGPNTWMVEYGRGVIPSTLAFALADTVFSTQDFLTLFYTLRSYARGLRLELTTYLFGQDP
Chain of hCYP P450 2D6 (P10635 whole entry): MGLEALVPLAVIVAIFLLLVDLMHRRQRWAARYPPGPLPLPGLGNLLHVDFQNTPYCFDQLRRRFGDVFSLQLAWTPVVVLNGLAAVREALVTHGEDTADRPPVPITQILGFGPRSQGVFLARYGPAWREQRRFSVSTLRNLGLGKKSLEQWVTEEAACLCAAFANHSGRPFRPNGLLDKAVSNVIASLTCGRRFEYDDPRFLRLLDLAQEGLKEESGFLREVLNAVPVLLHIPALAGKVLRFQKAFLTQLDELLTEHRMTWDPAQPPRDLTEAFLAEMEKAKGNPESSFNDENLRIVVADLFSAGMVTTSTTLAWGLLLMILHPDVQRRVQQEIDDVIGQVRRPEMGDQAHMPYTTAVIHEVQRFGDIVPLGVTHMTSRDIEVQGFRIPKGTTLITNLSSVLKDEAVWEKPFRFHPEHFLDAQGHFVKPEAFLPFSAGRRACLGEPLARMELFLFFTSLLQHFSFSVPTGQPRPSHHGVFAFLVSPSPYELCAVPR
Chain of hCYP P450 3A4 (P08684 whole entry): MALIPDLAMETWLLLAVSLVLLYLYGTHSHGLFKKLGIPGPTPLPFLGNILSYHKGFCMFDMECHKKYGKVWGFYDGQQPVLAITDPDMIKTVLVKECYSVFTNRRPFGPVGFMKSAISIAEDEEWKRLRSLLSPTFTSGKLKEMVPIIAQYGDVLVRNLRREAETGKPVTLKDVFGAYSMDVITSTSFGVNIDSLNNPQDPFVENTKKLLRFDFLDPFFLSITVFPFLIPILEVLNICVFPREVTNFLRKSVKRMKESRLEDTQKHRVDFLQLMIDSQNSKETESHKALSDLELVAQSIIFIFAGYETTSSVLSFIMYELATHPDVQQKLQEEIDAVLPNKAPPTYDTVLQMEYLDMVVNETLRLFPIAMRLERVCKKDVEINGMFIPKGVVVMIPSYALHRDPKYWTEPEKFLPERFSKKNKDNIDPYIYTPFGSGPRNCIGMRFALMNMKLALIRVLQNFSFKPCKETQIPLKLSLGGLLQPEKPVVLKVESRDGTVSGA
Chain of mA3AR (Q61618 whole entry): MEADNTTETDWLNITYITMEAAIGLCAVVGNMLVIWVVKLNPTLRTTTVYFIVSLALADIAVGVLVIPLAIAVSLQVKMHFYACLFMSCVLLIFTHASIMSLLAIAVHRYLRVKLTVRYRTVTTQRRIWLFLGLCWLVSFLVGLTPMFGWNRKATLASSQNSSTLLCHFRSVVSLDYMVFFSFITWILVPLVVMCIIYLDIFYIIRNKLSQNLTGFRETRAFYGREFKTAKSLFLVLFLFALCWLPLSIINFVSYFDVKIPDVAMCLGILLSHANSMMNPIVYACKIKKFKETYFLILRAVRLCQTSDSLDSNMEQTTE
Chain of 5HT2C (P28335 33-458): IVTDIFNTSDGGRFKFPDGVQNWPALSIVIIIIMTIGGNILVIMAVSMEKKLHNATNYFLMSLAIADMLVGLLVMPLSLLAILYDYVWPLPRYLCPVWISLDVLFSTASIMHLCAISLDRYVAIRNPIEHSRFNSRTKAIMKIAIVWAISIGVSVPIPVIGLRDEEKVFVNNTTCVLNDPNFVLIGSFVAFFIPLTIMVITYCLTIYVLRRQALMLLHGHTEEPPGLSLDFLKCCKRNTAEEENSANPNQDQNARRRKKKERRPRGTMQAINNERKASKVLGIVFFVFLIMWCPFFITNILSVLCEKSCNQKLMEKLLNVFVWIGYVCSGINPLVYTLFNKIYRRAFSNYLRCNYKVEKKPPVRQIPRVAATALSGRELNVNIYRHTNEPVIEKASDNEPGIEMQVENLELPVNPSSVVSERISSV
Chain of rA1AR (P25099 whole entry): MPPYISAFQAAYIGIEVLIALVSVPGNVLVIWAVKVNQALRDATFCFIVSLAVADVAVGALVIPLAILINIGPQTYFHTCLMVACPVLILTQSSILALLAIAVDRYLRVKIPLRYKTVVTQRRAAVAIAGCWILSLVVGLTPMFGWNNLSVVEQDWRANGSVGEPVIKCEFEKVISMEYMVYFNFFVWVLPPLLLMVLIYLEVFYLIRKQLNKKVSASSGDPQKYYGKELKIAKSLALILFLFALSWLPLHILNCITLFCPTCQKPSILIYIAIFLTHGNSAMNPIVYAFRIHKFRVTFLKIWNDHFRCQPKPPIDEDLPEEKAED
Chain of mA2AAR (Q60613 whole entry): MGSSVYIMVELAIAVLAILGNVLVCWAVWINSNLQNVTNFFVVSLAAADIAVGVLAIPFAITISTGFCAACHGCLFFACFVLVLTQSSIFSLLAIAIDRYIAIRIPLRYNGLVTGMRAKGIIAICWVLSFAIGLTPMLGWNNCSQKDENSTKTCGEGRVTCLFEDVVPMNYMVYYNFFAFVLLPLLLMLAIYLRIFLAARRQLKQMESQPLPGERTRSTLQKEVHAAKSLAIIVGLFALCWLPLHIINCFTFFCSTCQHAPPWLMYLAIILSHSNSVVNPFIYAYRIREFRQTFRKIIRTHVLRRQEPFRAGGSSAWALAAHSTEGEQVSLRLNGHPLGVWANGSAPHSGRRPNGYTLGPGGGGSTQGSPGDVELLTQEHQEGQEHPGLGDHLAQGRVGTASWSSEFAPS
Chain of hCYP P450 2C9 (P11712 whole entry): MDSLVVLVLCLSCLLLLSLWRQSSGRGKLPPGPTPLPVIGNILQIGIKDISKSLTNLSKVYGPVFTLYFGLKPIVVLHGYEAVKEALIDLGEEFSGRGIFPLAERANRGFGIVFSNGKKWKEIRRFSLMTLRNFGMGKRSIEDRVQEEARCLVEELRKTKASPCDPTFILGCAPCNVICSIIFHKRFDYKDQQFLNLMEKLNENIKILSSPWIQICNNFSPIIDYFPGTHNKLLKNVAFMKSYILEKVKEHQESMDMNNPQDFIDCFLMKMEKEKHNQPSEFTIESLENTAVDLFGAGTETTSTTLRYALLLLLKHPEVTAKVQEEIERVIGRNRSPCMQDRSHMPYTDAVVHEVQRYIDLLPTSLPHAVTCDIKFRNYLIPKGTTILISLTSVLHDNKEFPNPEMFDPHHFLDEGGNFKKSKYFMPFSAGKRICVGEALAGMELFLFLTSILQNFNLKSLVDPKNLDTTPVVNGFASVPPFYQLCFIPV
Chain of DAT (Q01959 whole entry): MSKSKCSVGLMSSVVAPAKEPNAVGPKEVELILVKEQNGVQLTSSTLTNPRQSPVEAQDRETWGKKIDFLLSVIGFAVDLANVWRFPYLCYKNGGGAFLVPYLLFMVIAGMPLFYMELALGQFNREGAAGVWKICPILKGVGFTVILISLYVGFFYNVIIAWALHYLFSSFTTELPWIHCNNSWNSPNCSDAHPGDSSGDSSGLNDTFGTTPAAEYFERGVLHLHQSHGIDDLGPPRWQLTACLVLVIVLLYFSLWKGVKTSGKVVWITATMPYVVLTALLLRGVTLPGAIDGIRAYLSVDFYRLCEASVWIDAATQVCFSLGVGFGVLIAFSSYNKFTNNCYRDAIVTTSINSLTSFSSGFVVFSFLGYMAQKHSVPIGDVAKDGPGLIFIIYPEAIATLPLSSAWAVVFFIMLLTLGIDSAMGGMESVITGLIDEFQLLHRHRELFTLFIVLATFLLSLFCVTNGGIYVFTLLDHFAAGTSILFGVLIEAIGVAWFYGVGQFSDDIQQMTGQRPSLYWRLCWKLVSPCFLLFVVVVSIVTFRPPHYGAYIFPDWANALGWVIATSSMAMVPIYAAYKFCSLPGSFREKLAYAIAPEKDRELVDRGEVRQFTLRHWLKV

As for `CNC(=O)[C@]12C[C@@H]1[C@@H](n1cnc3c(NC4CCCC4)nc(Cl)nc31)[C@H](O)[C@@H]2O` [Compound 6], at σ1, affinity was put at a Ki of 1550 nM.

In the case of `Nc1nc(Cl)nc2c1ncn2[C@H]1[C@H](O)[C@H](O)[C@]2(CO)C[C@H]12` [Compound 21], the “Off-target, receptor: interactions found” value in data set [1] is “none”. Also, on rA1AR, the Ki was 273 nM.

Turning to `OC[C@H]1O[C@@H](n2cnc3c(NC(C4CC4)C4CC4)ncnc32)[C@H](O)[C@@H]1O` [Compound 8], the “Off-target, receptor: interactions found” value in [1] was “none”. The Ki was 0.85 ± 0.27 nM on hA1AR, 1470 ± 380 nM at hA2AAR, 1370 nM at rA2AAR and 41.3 ± 5.3 nM on hA3AR.

In the case of `O[C@@H]1[C@H](O)[C@@H]2C[C@@H]2[C@H]1n1cnc2c(NC(C3CC3)C3CC3)nc(Cl)nc21` [Compound 7], the “Broad GPCR screening result” value in the data set on GPCR assays is on record as “not promiscuous”. Further, the “Hits in kinase screen” value in the data set with 403 kinases is on record as “only two weak hits”. In addition, the Clinical observations entry in [2] is recorded as “no clinical observations”. Besides, the “Adverse reaction after oral dosing” value with female rhesus monkeys was “no adverse reaction”. In [3], the “Stability in simulated intestinal fluid” value is reported as “stable”. Further, the “Stability in human liver microsomes” value in the data set “Human liver microsomes” was “stable”. For the same compound, the “Effects on heart rate and blood pressure” value in the data set with anesthetized rat was “modest effects on heart rate (slow onset of reduction) and blood pressure (a modest, transient rise)”. In addition, the “Lethality in the mouse” value in the data set on mouse is “non-lethal”. The Tb in the data set with wild-type C57BL/6J mice [4] was 33.4±1.7 °C. Moreover, the ARs causing hypothermia result in the data set on A1AR, A3AR [5] is “A3AR >> A1AR[30]”.

For the compound `OCC12CC1C(n1cnc3c(NC(C4CC4)C4CC4)nc(Cl)nc31)C(O)C2O` (centres unmarked) [Compound 23], the Ki at DAT was 4.75 µM; on 5HT2C it was 1850 nM; on hA1AR, 39 ± 17 nM; at mA1AR it was 0.71 nM; on hA2AAR, 2200 nM; at hA3AR, 1600 ± 210 nM. The Ki at mA3AR was 1030 nM. Also, the A2AAR % inhibition on mA2AAR is 41±9%.

As to `OC[C@H]1O[C@@H](n2cnc3c(NC(C4CCC4)C4CCC4)ncnc32)[C@H](O)C1O` (stereo in doubt) [Compound 9, (2R,3R,4R,5R)-2-(6-((Dicyclobutylmethyl)amino)-9H-purin-9-yl)-5-(hydroxymethyl)tetrahydrofuran-3,4-diol], affinity at hA2BAR was put at a Ki of 8.62 µM. Further, the Tb in the data set with wild-type C57BL/6J mice [6] (3 mg/kg ip., average from dosing to 60 min, mean ±SD) turned out to be 33.0±0.7 °C. In the data set with wild-type C57BL/6J mice [6] (ip., up to 3 or 10 mg/kg), the “Effect on Tb in WT mice” value was “produced hypothermia and hypoactivity”. Moreover, the “Receptor dependence of hypothermia” value in the data set with A1AR, A3AR [7] (A1AR KO, A3AR KO, double KO mice) is recorded as “dependent on A1AR, without a contribution from A3AR”. In addition, in the data set on A1AR, A3AR [7] (WT vs AR-KO mice (Figure 2)), the ARs causing hypothermia entry is reported as “A1AR selective (Figure 2)”. The “Duration of hypothermia after icv. administration” value in the data set on mice (1.67 μg/mouse icv. (= […])) is reported as ~ 10 h. Besides, in the data set on mice (1.67 μg/mouse icv. (= […])), the “Effect on Tb after icv. administration” value is given as “deep hypothermia”. In the data set on mice (5 μg injected icv. (equivalent to […])), the “Tb reached after icv. administration” value was ~ 24 °C. Also, the “maximal concentration, molar” value in data set [8] was determined as 310 nM. For the same compound, the “Stability in simulated gastric fluid” value in data set [9] is reported as “completely stable”. The “Stability in simulated intestinal fluid” value in [3] is on record as “completely stable”. Besides, the “Clearance in liver microsomes” value in the data set “Human liver microsomes” (human), in the data set “Mouse liver microsomes” and in “Rat liver microsomes” was “medium clearance” throughout. Further, the Stability in plasma entry (in data set [10]; in data set [11]; in the data set “Stability in rat plasma”) was “completely stable” each time. In addition, the “Inhibition of 1A2 CYP isozyme” value at 1A2 CYP isozyme was “no inhibition”. Besides, the “Inhibition of 2C9 CYP isozyme” value at hCYP P450 2C9 is reported as “weak inhibition”. For the same compound, the “Inhibition of 2C19 CYP isozyme” value on 2C19 CYP isozyme is listed as “no inhibition”. Moreover, the “Inhibition of 2D6 CYP isozyme” value at hCYP P450 2D6 is listed as “no inhibition”. On hCYP P450 3A4, the “Inhibition of 3A4 CYP isozyme” value is “no inhibition”. Moreover, in the data set on CACO-2 cells, the “Permeability in CACO-2 cells” value is given as “high permeability”. For the same compound, the “Toxicity in HEP-G2 hepatocytes” value in the data set on HEP-G2 hepatocytes is given as “nontoxic”.
